# Assay results as given in patent US9579334B2, “Iminosugars and methods of treating viral diseases” (Emergent Virology LLC, priority 2009, dated 2017).
# Experiments:
# Vero cells = assay: Cytotoxicity towards Vero cells, LDH assay; type: cell-based, African green monkey; details: for toxicity to the Vero cells: 0.122 up to 500 uM
# Description: Procedure. NB-DNJ, NN-DNJ and N7-O-DNJ at concentrations from 0.122 up to 500 uM were tested for cytotoxicity towards Vero cells. Vero cells (Afrika green monkey kidney epithelial cell line) obtained from American Type Culture Collection (ATCC, Manassas, Va.) were plated in cell culture treated 96-well flat bottom plates 24 hr prior to assay. Test were done in modified Eagle medium, supplemented with 2% fetal bovine serum, 2 mM L-glutamine, 100 U/ml penicillin, 100 ug/ml streptomycin, starting at 500 μM compounds, decreasing to 0.122 uM. Cells were cultured at 37° C., 5% CO2 incubator and the plates were assayed by LDH assay (CytoTox96, Promega, Wis.) according to the manufacturer's recommendations for induced cellular damage (release of cytoplasmic enzyme lactate dehydrogenase). OD readings were used to calculate and compare percent cytopathic effect of cells treated with compounds or controls. […] NN-DNJ begins to show toxicity to the cells at concentrations above ˜20 uM.
# Dengue 2 strain S221 = assay: Protection of AG129 mice against Dengue virus (survival); type: in vivo
# Description: FIGS. 10 and 11 A-C show protection of mice against Dengue virus by UV-4 (N9-DNJ). In this model, AG129 mice, which are 129/Sv mice lacking receptors for both alpha/beta interferon and IFN-gamma, are infected with Dengue 2 strain S221 via intravenous injection. The mice die of TNF-a mediated acute/early death 4-5 days after infection, see Shresta, S., et al., J Virol, 2006. 80(20): p. 10208-17. Each experiment group contained 5 mice sex matched and 5-6 weeks old. The mice were injected intravenously via the tail vein with 10^11 genomic equivalents of DENV2 strain S221 30 min after the first N9-DNJ dose was administered orally. The N9-DNJ was administered orally twice daily at 200, 100, 50 and 10 mg/kg. The antiviral compound Ribavirin 100 mg/kg was given subcutaneously once daily and included as a positive control together with a PBS-only group. Animals displaying severe illness during the experiment (as determined by 20% weight loss, extreme lethargy, ruffled coat, or paralysis) were euthanized.
smiles,measurement,setting,value
"CCCCCCCCCN1C[C@H](O)[C@@H](O)[C@H](O)[C@H]1CO [NN-DNJ, N-Nonyl dexoynojirimycin]",concentration above which toxicity to the cells begins to show,Vero cells; Vero cells,> 20 µM
"CCCCN1C[C@H](O)[C@@H](O)[C@H](O)[C@H]1CO [NB-DNJ, N-Butyl deoxynojirimycin]",toxicity to the Vero cells,Vero cells,non-toxic
"CCCOCCCCCCN1C[C@H](O)[C@@H](O)[C@H](O)[C@H]1CO [N7-O-DNJ, N-(7-Oxadecyl)deoxynojirimycin]",toxicity to the Vero cells,Vero cells,non-toxic
"COCCCCCCCCCN1C[C@H](O)[C@@H](O)[C@H](O)[C@H]1CO [N9-DNJ, N-(9-Methoxynonyl) deoxynojirimycin]","survival, p vs. PBS",Dengue 2 strain S221; 10 mg/kg orally twice daily,0.034
same,"survival, p vs. PBS",Dengue 2 strain S221; 100 mg/kg orally twice daily,0.002
same,survival,"Dengue 2 strain S221; DENV2 S221 i.v., orally twice daily at 200, 100, 50 and 10 mg/kg, all drug concentrations",statistically significant improvement in survival
